Source: US20250134876A1, “METHODS OF TREATING A CANCER OVEREXPRESSING ONE OR MORE BCL-2 FAMILY PROTEINS” (Kartos Therapeutics, Inc., priority 2021, published 2025)

How the values were obtained:
patients with R/R AML = test: Gene expression in PBMC from treated patients with R/R AML; assay type: in vivo, human
Method: For patients with R/R AML, the compound of Formula (I) was administered at 120 mg (n=3), 180 mg (n=2), 240 mg (n=8), or 360 mg (n=4) daily for QD for seven days in dose-escalation phase, with different ‘off-treatment’ duration depending on cohort assignments. Samples taken at pre-dose on Cycle 1, Day 1 (C1D1) and Cycle 1, Day 5 (C1D5).
Treatment of patients with R/R AML with the compound of Formula (I) induces expression of genes involved in the Bcl-2 apoptotic pathway. […] FIG. 8 illustrates induced expression of Bcl-2 genes in PBMC following treatment of R/R AML patients with the compound of Formula (I). Eighteen genes were included in analysis: BAD, BAX, BCL2L1, MCL1, BCL2, BID, CAPN2, CASP10, CASP3, CASP7, CASP8, CASP9, TNFRSF10A, TNFRSF10B, TP53, PUMA, NOXA and STAT3. Experimental data was obtained similar to the method set forth in Example 4.

[1] = tested on: HEL-92 cells (TP53 mutant); test: Bcl-2 family protein expression in HEL-92 cells, intracellular flow cytometry; assay type: cell-based; conditions: 72 hours
Method: (§1) The effect of the compound of Formula (I) on inducing apoptosis along with the expression of anti-apoptotic and pro-apoptotic protein expression in the MV-411 AML cell was assessed. […] Molecular Cancer Therapeutics. 2015 Mar. 1; 14(3):649-58. After 72 hours of culture with the compound of Formula (I), MV-411 (TP53 wt) and HEL-92 cells (TP53 mutant) were stained with antibodies against various Bcl-2 family proteins and data acquired using intracellular flow cytometry (FIG. 5(B)).

[2] = tested on: MV-411 AML cell line (TP53 wild-type); test: Bcl-2 family protein expression in MV-411 AML cells, intracellular flow cytometry; assay type: cell-based; conditions: MV-411 cells, 72 hours, above the concentration to induce cell stasis
Method: as §1

[3] = tested on: patients with R/R myelofibrosis; test: mRNA expression in cells isolated from treated patients with R/R myelofibrosis; assay type: in vivo, human; conditions: 120 mg or 240 mg for 5 or 7 days, C1D1 pre-dose vs C1D5
Method: Treatment of patients with the compound of Formula (I) induces p21, Bax and Puma expression in vivo in patients with R/R myelofibrosis or R/R AML. mRNA expression in cells isolated from patients was evaluated pre-dosing on day 1 and 24 hours after the first course of treatment with the compound of Formula (I) in patients with R/R myelofibrosis (FIG. 7(A)). The compound of Formula (I) is administered at 120 mg for 7 days for Cohort 1, 240 mg for 7 days for Cohort 2, 240 mg for 7 days for Cohort 3, and 240 mg for 5 days for Cohort 4. Samples taken at pre-dose on Cycle 1, Day 1 (C1D1) and Cycle 1, Day 5 (C1D5).

CLL tumor cells = test: p53 and Bcl-2 family protein expression and apoptosis (cPARP+) in patient CLL tumor cells treated ex vivo, intracellular flow cytometry; assay type: cell-based, human; conditions: CLL tumor cells on HS-5 stromal cells, 24 hours
Method: The effect of the compound of Formula (I) on the expression of p53 along with anti-apoptotic and pro-apoptotic proteins was assessed in tumors cells isolated from patients diagnosed with CLL. Blood samples were collected prior to the patient receiving any treatment. CLL tumor cells were isolated and incubated on HS-5 stromal cells for 24 hours and then treated with the compound of Formula (I) for 24 hours. p53 and Bcl-2 family proteins were measured by intracellular flow cytometry and shown as median fluorescent intensity (MFI). The percent cPARP+ is shown above the level of basal spontaneous apoptosis. CLL tumor cells were cultured on HS-5 stromal cells were then treated with an increasing concentrations of the compound of Formula (I) for 24 hours. The result was an increase in intracellular P53 levels along with a decrease in anti-apoptotic Bcl-XL and Mcl-1 levels, and an increase in pro-apoptotic Bax.

[4] = tested on: UKE-1 myelofibrosis cell line (TP53 wild-type); test: Pro-apoptotic protein expression in UKE-1 myelofibrosis cell line, intracellular flow cytometry; assay type: cell-based; conditions: UKE-1 cells, 2.5 pM, 24, 48 and 72 hours, time-dependent
Method: The compound of Formula (I) induces Bak, Bax and BIM expression in a myelofibrosis cell line. The UKE-1 myelofibrosis cell line (TP53 wild-type) was cultured for 24, 48 and 72 hours with 2.5 pM of compound (equivalent to levels observed in vivo following administration in patients) and stained with antibodies against various pro-apoptotic protein using intracellular flow cytometry techniques. […] The upper line is cells treated with the compound of Formula (I) while the lower line is a control (no treatment).

[5] = 120-360 mg QD for seven days, C1D1 pre-dose vs C1D5

For `CC(C)[C@@H](CS(=O)(=O)C(C)C)N1C(=O)[C@@](C)(CC(=O)O)C[C@H](c2cccc(Cl)c2)[C@H]1c1ccc(Cl)cc1` [Formula (I), 2-((3R,5R,6S)-5-(3-chlorophenyl)-6-(4-chlorophenyl)-1-((S)-1-(isopropylsulfonyl)-3-methylbutan-2-yl)-3-methyl-2-oxopiperidin-3-yl) acetic acid], the “expression of Bax (gene expression)” value (patients with R/R AML; [5]) was “increased expression”, the “expression of Puma (gene expression)” value (patients with R/R AML; [5]) was “increased expression” and the “expression of p21 (gene expression)” value (patients with R/R AML; [5]) was “increased expression”. For the same compound, the “expression of genes involved in the BCL2 family/apoptosis pathway” value (patients with R/R AML; cells isolated from peripheral blood (PBMC), eighteen genes) was “induced the expression”, the “changes in Bcl-2 family proteins” value [1] was “no changes” and the “anti-apoptotic Bcl-2 family proteins” value [2] was “decrease”. The “pro-apoptotic effector protein Bak” value [2] was “increase”, the “pro-apoptotic effector protein Bax” value [2] was “increase” and the “expression of Bax (mRNA)” value [3] was “increased expression”. The “expression of p21 (mRNA)” value [3] was “increased expression”, the “expression of anti-apoptotic protein Bcl-2” value (CLL tumor cells) was “decreased expression” and the “expression of pro-apoptotic protein Bak” value (CLL tumor cells) was “increased expression”. The “cell apoptosis (percent cPARP+ above basal spontaneous apoptosis)” value (CLL tumor cells; increasing concentrations) was “increased cell apoptosis in a dose-dependent manner”, the “anti-apoptotic Bcl-XL levels” value (CLL tumor cells; increasing concentrations, MFI) was “decrease” and the “anti-apoptotic Mcl-1 levels” value (CLL tumor cells; increasing concentrations, MFI) was “decrease”. The “intracellular P53 levels” value (CLL tumor cells; increasing concentrations, MFI) was “increase”, the “pro-apoptotic Bax levels” value (CLL tumor cells; increasing concentrations, MFI) was “increase” and the “protein expression of BIM” value [4] was “induced protein expression”. The “protein expression of Bak” value [4] was “induced protein expression” and the “protein expression of Bax” value [4] was “induced protein expression”.
